Drawing on patent publication US20060045953A1 (priority 2004, published 2006), this text covers EC50 for 20 compounds.

Read-outs that look alike come from different tables or passages of the source.

The target of the test is T1, hT1R1/hT1R3 umami receptor (Homo sapiens, UniProt Q7RTX0+Q7RTX1).
T1 construct: expressed in transfected cells; host or cells: HEK293 derivative stably expressing Gα15, clone I-17, expression induced with mifepristone
T1 sequence (Q7RTX1 21-841): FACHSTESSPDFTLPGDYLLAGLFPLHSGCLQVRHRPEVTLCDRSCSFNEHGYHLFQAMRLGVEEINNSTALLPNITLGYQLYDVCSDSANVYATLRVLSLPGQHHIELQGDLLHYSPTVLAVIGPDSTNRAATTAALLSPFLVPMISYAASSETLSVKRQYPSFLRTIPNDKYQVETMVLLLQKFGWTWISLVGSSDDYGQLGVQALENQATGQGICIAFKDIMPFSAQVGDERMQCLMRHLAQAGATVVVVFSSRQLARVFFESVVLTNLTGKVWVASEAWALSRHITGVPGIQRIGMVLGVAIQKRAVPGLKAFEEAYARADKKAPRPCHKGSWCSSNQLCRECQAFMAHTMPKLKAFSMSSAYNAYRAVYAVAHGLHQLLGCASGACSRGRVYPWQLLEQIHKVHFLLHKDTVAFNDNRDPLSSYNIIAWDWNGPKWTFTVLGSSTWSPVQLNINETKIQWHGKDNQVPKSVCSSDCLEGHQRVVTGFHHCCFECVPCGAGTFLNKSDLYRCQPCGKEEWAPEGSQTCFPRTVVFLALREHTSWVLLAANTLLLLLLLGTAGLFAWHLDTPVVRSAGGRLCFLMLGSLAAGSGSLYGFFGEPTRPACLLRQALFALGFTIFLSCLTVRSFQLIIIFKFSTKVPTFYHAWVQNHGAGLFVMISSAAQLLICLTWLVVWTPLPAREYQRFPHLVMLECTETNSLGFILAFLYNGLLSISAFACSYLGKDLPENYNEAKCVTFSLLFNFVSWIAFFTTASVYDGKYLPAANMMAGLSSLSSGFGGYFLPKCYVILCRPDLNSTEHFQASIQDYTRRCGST
T1 sequence (Q7RTX0 21-852): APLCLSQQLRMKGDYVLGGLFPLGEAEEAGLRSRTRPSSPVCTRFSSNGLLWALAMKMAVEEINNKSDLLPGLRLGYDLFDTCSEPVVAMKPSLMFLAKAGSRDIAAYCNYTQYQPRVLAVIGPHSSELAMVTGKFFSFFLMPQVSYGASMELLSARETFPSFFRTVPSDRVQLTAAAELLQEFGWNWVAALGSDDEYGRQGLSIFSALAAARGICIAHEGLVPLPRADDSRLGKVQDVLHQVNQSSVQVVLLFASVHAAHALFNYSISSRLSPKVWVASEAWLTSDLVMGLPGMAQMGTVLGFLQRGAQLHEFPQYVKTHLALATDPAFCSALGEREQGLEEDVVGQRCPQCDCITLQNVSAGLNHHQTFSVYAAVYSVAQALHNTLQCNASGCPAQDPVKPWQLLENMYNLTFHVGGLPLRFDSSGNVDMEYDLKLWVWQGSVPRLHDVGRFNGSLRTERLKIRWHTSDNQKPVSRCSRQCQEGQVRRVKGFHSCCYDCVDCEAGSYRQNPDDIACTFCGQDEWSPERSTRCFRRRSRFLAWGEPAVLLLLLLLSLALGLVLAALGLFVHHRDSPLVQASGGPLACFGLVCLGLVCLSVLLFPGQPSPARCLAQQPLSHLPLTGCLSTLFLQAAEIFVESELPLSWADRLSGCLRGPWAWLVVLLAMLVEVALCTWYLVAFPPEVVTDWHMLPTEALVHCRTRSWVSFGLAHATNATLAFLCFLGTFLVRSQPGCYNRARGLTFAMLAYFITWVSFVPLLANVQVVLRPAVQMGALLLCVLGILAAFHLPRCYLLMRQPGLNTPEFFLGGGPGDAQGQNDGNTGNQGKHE
The test is described as follows: In vitro hT1R1/hT1R3 umami taste receptor activation assay (FLIPR, dose response). In kind it is cell-based.

[1] abbreviates: read-out: EC50 for activation of a hT1R1/hT1R3 umami receptor expressed in an HEK293 cell line.
Setting [2] is: Table A, Umami Amides, read-out: Umami EC50.
Setting [3] is: Table D, Umami Acrylamides, read-out: Umami EC50.

As for `COc1ccc(CNC(=O)c2ccccc2-n2cccc2)c(OC)c1` [Example 121, N-(2,4-dimethoxybenzyl)-2-(1H-pyrrol-1-yl)benzamide], under setting [1], the EC50 worked out at 1660 nM.
Consider `CCCC(CCC)NC(=O)c1ccc(-c2cnco2)cc1` [Example A128, N-(heptan-4-yl)-4-(oxazol-5-yl)benzamide], for which the EC50 under setting [2] turned out to be 400 nM.
Take `COc1ccc2c(c1)CCCC2NC(=O)c1cccc(OC)c1N` (centres unmarked) [Example A107, 2-amino-3-methoxy-N-(6-methoxy-1,2,3,4-tetrahydronaphthalen-1-yl)benzamide]: the EC50 under setting [2] was 70 nM.
As to `COC(=O)[C@@H](CC(C)C)NC(=O)c1ccc2ncccc2c1` [Example A37, (R)-methyl 4-methyl-2-(quinoline-6-carboxamido)pentanoate], under setting [2], the EC50 was determined as 1500 nM.
The same measure, in the same setting: for `CCC(NC(=O)c1ccc(OC)c(C)c1)c1ccc(OC)cc1` (centres unmarked) [Example A96, 4-methoxy-N-(1-(4-methoxyphenyl)propyl)-3-methylbenzamide] the value was 760 nM.
Take `CC(NC(=O)Nc1ccccc1Cl)C1CCCCC1` (centres unmarked) [Example C5, 1-(2-chlorophenyl)-3-(1-cyclohexylethyl)urea]: the EC50 (Table C, Umami Ureas, read-out: Umami EC50) worked out at 840 nM.
Turning to `CCCC(NC(=O)c1ccc(OC)c(C)c1)c1ccc(OC)cc1` (centres unmarked) [Example 54, 4-methoxy-N-(1-(4-methoxyphenyl)butyl)-3-methylbenzamide], the EC50 under setting [1] came to 3140 nM.
With `COC(=O)[C@@H](CC(C)C)NC(=O)c1ccc(OC)c(F)c1` [Example 60, (R)-methyl 2-(3-fluoro-4-methoxybenzamido)-4-methylpentanoate], under setting [1], the EC50 is 300 nM.
Still for that read-out and setting: for `CCCC(CCC)NC(=O)c1ccc2oc(C)nc2c1` [Example 40, 2-Methyl-benzooxazole-5-carboxylic acid (1-propyl-butyl)-amide] the value was 330 nM.
The same measure, in the same setting: for `O=C(NC1CCCc2ccccc21)c1ccc2c(c1)OCO2` (centres unmarked) [Example 7, N-(1,2,3,4-tetrahydronaphthalen-1-yl)benzo[d][1,3]dioxole-5-carboxamide] the value was 710 nM.
In the case of `CCCC(NC(=O)c1cc2cc(OC)ccc2o1)C(C)C` (centres unmarked) [Example A12, 5-methoxy-N-(2-methylhexan-3-yl)benzofuran-2-carboxamide], under setting [2], the EC50 stood at 1130 nM.
In the case of `CCCC(CCC)NC(=O)/C=C/c1cccs1` [Example D6, N-(1-Propyl-butyl)-3-thiophen-2-yl-acrylamide], the EC50 under setting [3] is 750 nM.
`CCC(CC)NC(=O)/C=C/c1ccc(OC)cc1` [Example D7, (E)-3-(4-methoxyphenyl)-N-(pentan-3-yl)acrylamide]: the EC50 under setting [3] came out at 820 nM.
On to `CC(C)/C=C/C(=O)NC1CCCc2ccccc21` (centres unmarked) [Example 84, 4-Methyl-pent-2-enoic acid (1,2,3,4-tetrahydro-naphthalen-1-yl)-amide], for which the EC50 under setting [1] worked out at 1500 nM.
With `CC[C@@H](C)[C@@H](NC(=O)c1ccc2c(c1)OCO2)C(=O)OC` [Example A42, (2R,3R)-methyl 2-(benzo[d][1,3]dioxole-5-carboxamido)-3-methylpentanoate], the EC50 under setting [2] came out at 350 nM.
`O=C(NCCc1ccccn1)C(=O)NCc1cccc2c1OCCO2` [Example 137, N-((2,3-dihydrobenzo[b][1,4]dioxin-5-yl)methyl)-N′-(2-(pyridin-2-yl)ethyl) oxalamide]: the EC50 under setting [1] is 300 nM.
In the case of `CCCC(CCC)NC(=O)c1cc(C)nn1C` [Example 99, N-(heptan-4-yl)-1,3-dimethyl-1H-pyrazole-5-carboxamide], the EC50 under setting [1] is 7800 nM.
`COc1ccc(CNC(=O)c2ccnn2C)c(OC)c1` [Example 110, 2-Methyl-2H-pyrazole-3-carboxylic acid 2,4-dimethoxy-benzylamide]: the EC50 under setting [1] amounted to 6000 nM.
Regarding `CCCC(CCC)NC(=O)/C=C/c1cccs1` [Example 77, (E)-N-(heptan-4-yl)-3-(thiophen-2-yl)acrylamide], the EC50 under setting [1] stood at 440 nM.
Regarding `CCCC(CCC)NC(=O)c1coc2ccccc12` [Example A123, N-(heptan-4-yl)benzofuran-3-carboxamide], under setting [2], the EC50 is 510 nM.
